Assay results: patent US10716783B2, “Prolylhydroxylase/ATF4 inhibitors and methods of use for treating neural cell injury or death and conditions resulting therefrom” (CORNELL UNIVERSITY, priority 2013, dated 2020)
Entries after “also recorded” stand apart in the source; their conditions may differ.

How the values were obtained:
[1] = tested on: immortalized hippocampal neuroblasts (HT22 cells); experiment: Hemin-induced toxicity in hippocampal neuroblasts (MTT); format: cell-based
Source text: FIGS. 1A-1L: Structurally diverse HIF PHD inhibitors stabilize HIF-1 and abrogate toxicity induced by hemin, a byproduct of blood breakdown, in cortical neurons hippocampal neuroblasts and striatal neuroblasts (not shown).
Secondary injury from ICH has been attributed to hemin, a breakdown product of hemoglobin (from lysed red blood cells). To investigate the mechanisms of hemin toxicity to neurons in vitro, this experiment exposed primary cortical neurons, immortalized hippocampal neuroblasts (HT22 cells), and immortalized striatal neuroblasts (Q7 cells) to hemin for 24 hours. As expected, a dose dependent loss in viability as measured by MTT reduction or LIVE/DEAD assay in all three cell types was observed. […] To examine whether iron-dependent HIF PHD enzymes can be modulated to protect neurons from hemin-induced toxicity, this experiment examined structurally diverse inhibitors of the HIF PHDs: desferoxamine, cyclopirox, and dihydroxybenzoic acid. […] To test this notion further using a chemical biological approach, the protective effects of cyclopirox, a HIF PHD inhibitor, and a cyclopirox analog with no PHD inhibitory activity but with similar metal binding affinity to cyclopirox were compared. As expected, only the cyclopirox analog with PHD inhibitory activity was neuroprotective. […]

[2] = tested on: intracerebral hemorrhage (autologous blood infusion); experiment: Autologous blood infusion ICH in rats; format: in vivo
Description: FIGS. 4A-4N. Adaptoquin delivered post-injury reduces cell death and enhances functional recovery post injury in mice and rats. Adaptoquin's effects in mice are not associated with global shifts of iron out of the brain. FIG. 4A: Experimental design for schedule of delivery of adaptaquin post-ICH. 30 mg/kg was delivered post-injury and then daily for seven days during which behavioral analysis was done. Mice were sacrificed at day 7 for qPCR and Fluoro-jade staining. […] FIG. 4J: Protocol for adaptoquin treatment of rats with ICH. ICH is modeled by autologous blood infusion and not collagenase in these studies. Behavior is tracked by a single pellet reaching task out to 28 days, but the schedule of infusion is similar to what is used in mice-2 hrs post blood infusion and then daily out to seven days. Behavior is monitored before, from 9-11 days and from 25-28 days. […] FIG. 4L: Protocol for evaluating the total concentrations of iron and zinc in brain following ICH in vehicle and adaptoquin treated mice. FIGS. 4M, 4N: Pseudocolored sections of collagenase induced ICH in mice after 7 days. […] These studies are consistent with the notion that adaptoquin works by inhibiting a specific metalloenzyme rather than global movement of metal ions.
To determine whether adaptoquin could ameliorate outcomes using a distinct model of ICH in a distinct species, adaptoquin was tested it (30 mg/kg, intraperitoneal) in a model of autologous blood infusion in rats. Autologous blood infusion causes a narrower slit like lesion in the striatum than collagenase, but results in motor impairments out beyond 30 days. Adaptoquin (30 mg/kg) was administered two hours after autologous blood infusion and then daily for seven days.

ATF4 = ATF4 dependent gene expression under oxidative stress in neurons (microarray, qPCR, promoter occupancy); format: cell-based
Source text: FIGS. 5A-5G. […] Because adaptoquin is a HIF PHD inhibitor that appears to work independent of HIF transcription factors, and because hemin induced death involves oxidative stress, the effect of adaptoquin on oxidative glutamate toxicity was examined. This form of toxicity is observed in primary cortical neurons from E17 rat embryos (2 DIV) and involves glutamate mediated inhibition of the amino acid cystine via its plasma membrane transporter. […] Accordingly, the optimal concentration of adaptoquin in protecting neurons was first determined and found to be about 1 micromolar. […] To determine the mechanism of adaptoquin, transcriptomic experiments were performed using non-protective and protective concentrations of drug harvesting RNA just prior to the time the cell's becoming insensitive to adaptoquin (16 hrs), as provided in FIG. 5C.
FIGS. 6A-6I. […] Expression of ATF4 was forced into primary neurons, which induces death of these neurons by MTT assay (FIG. 6D) or LIVE/DEAD staining, Green is live, Red is dead (FIG. 6E).
To probe the mechanism of adaptoquin-induced neuroprotection, the study moved its attention to a well established model of oxidative stress in neurons induced by glutamate. Like hemin induced toxicity, oxidative glutamate toxicity is abrogated by forced expression of GPX4 (Alim et al., unpublished observations). However, oxidative glutamate toxicity has a much longer window before cells are committed to die (eighteen hours), facilitating analysis of primary events involved in cell death and protection. A detailed dose response and therapeutic window study was performed with adaptoquin in mouse cortical neurons exposed to glutamate or the glutamate analog, homocysteate. […] To probe the mechanism of this potent, delayed protection, a microarray transcriptomics study was performed using RNA from neuronal cultures that had been exposed to glutamate (or HCA) for 16 hours with vehicle, as well as non-protective (100 nM) and protective doses of adaptoquin (1 μM). […]

Which results are given for `Oc1cccnc1NC(c1ccc(Cl)cc1)c1ccc2cccnc2c1O` (centres unmarked) [adaptoquin]?
Hemin-induced death / protection after HIF-1α or HIF-2α reduction (shRNA) [1]: prevents hemin induced death independent of HIF-1 and HIF-2; Body weight ([2]; 30 mg/kg i.p.): no significant changes; Glucose levels ([2]; 30 mg/kg i.p.): no significant changes; Temperature ([2]; 30 mg/kg i.p.): no significant changes; Single pellet reaching task (percent correct) ([2]; 30 mg/kg i.p. 2 h after blood infusion then daily for seven days, later time points): significant improvements in percent correct; also recorded: improves single pellet reaching; Oxidative stress and ATF4 dependent induction of Trb3 (ATF4; 1 micromolar): abrogates oxidative stress and ATF4 dependent induction of Trb3; ATF4 occupancy at the promoter of Trib3 (ATF4; oxidative stress): abrogates oxidative stress induced ATF4 occupancy; Expression of ATF4 dependent genes (Trib3, MTHFR2, SCL7A11, STC2) (ATF4; protective doses (1 μM), quantitative PCR / microarray): significantly reduces expression of ATF4 dependent genes; also recorded: downregulation of ATF4 dependent genes
